# Measured values reported in ChEMBL document CHEMBL1201862, “PubChem BioAssay data set” (2004).
#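 The compound was tested at five concentrations on cells cultured in 96-well plates, with a 48-hour exposure period. GI50 marks 50% less growth.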 Active and inactive are the calls of the source. Cut-off read from the data, not from the text of the source: active = GI50 up to about 1.1 µM and inactive = higher.
# Assays:
# Assay in all cases: inhibition of tumour cell growth, NCI panel, 48 h
# [1] = test system: A549
# [2] = test system: ACHN
# [3] = test system: BT-549
# [4] = test system: HCT-116
# [5] = test system: HT-29
# [6] = test system: K562
# [7] = test system: LOX IMVI
# [8] = test system: M14
# [9] = test system: MCF7
# [10] = test system: MOLT-4
# [11] = test system: NCI-H460
# [12] = test system: OVCAR-4
# [13] = test system: RPMI-8226
# [14] = test system: SK-MEL-2
# [15] = test system: SK-MEL-5
# [16] = test system: SR
# [17] = test system: T47D
# [18] = test system: UO-31
# [19] = test system: SF-539
Compound,GI50 [1],GI50 [2],GI50 [3],GI50 [4],GI50 [5],GI50 [6],GI50 [7],GI50 [8],GI50 [9],GI50 [10],GI50 [11],GI50 [12],GI50 [13],GI50 [14],GI50 [15],GI50 [16],GI50 [17],GI50 [18],GI50 [19]
CC1(C)OC(=O)N(c2ccccc2)C12C=Cc1cccc([N+](=O)[O-])c1O2 (stereo unspecified),79.1 µM (inactive),> 100 µM (inactive),> 100 µM (inactive),67 µM (inactive),98.9 µM (inactive),35.1 µM (inactive),97.3 µM (inactive),51.6 µM (inactive),79.3 µM (inactive),15.1 µM (inactive),> 100 µM (inactive),56.2 µM (inactive),53.3 µM (inactive),> 100 µM (inactive),72.8 µM (inactive),9.18 µM (inactive),43.4 µM (inactive),45.3 µM (inactive),–
CC(C)(C)OC(=O)N1CCCC1=O,> 10 µM (inactive),> 10 µM (inactive),> 10 µM (inactive),> 10 µM (inactive),> 10 µM (inactive),> 10 µM (inactive),> 10 µM (inactive),> 10 µM (inactive),> 10 µM (inactive),> 10 µM (inactive),> 10 µM (inactive),–,> 10 µM (inactive),> 10 µM (inactive),> 10 µM (inactive),> 10 µM (inactive),> 10 µM (inactive),> 10 µM (inactive),> 10 µM (inactive)
COc1ccc(C2=Cc3nc2c(-c2ccccc2)c2ccc([nH]2)c(-c2ccccc2)c2nc(c(-c4ccccc4)c4ccc([nH]4)c3-c3ccccc3)C=C2)cc1,> 100 µM (inactive),> 100 µM (inactive),> 100 µM (inactive),> 100 µM (inactive),> 100 µM (inactive),> 100 µM (inactive),> 100 µM (inactive),> 100 µM (inactive),> 100 µM (inactive),> 100 µM (inactive),> 100 µM (inactive),> 100 µM (inactive),–,> 100 µM (inactive),> 100 µM (inactive),> 100 µM (inactive),> 100 µM (inactive),> 100 µM (inactive),> 100 µM (inactive)
Cn1c([C@H](C#N)C(=O)c2cc(O)ccc2[N+](=O)[O-])nc2ccccc21,> 100 µM (inactive),> 100 µM (inactive),16 µM (inactive),> 100 µM (inactive),> 100 µM (inactive),–,> 100 µM (inactive),> 100 µM (inactive),> 100 µM (inactive),4.2 µM (inactive),> 100 µM (inactive),> 100 µM (inactive),> 100 µM (inactive),> 100 µM (inactive),> 100 µM (inactive),5.98 µM (inactive),> 100 µM (inactive),> 100 µM (inactive),> 100 µM (inactive)
O=c1ccn([C@@H]2C[C@@H]2CO)c(=O)[nH]1,> 100 µM (inactive),> 100 µM (inactive),> 100 µM (inactive),> 100 µM (inactive),> 100 µM (inactive),> 100 µM (inactive),> 100 µM (inactive),> 100 µM (inactive),> 100 µM (inactive),–,> 100 µM (inactive),> 100 µM (inactive),> 100 µM (inactive),> 100 µM (inactive),> 100 µM (inactive),> 100 µM (inactive),> 100 µM (inactive),> 100 µM (inactive),> 100 µM (inactive)
NC(=O)C1=C(c2ccccc2)c2ccccc2C1=O,18.6 µM (inactive),11.4 µM (inactive),16.9 µM (inactive),16.9 µM (inactive),16.6 µM (inactive),38.1 µM (inactive),7.98 µM (inactive),19.1 µM (inactive),16.1 µM (inactive),3.37 µM (inactive),15.9 µM (inactive),18.5 µM (inactive),14.6 µM (inactive),19.9 µM (inactive),16.3 µM (inactive),4.78 µM (inactive),19.1 µM (inactive),18.8 µM (inactive),–
COC(=O)[C@@H]1COC(C(C)(C)C)N1C(=O)C(c1ccccc1)c1ccccc1 (stereo partly specified),65.8 µM (inactive),69.3 µM (inactive),> 100 µM (inactive),41.3 µM (inactive),55.8 µM (inactive),19.5 µM (inactive),22.6 µM (inactive),52 µM (inactive),64.3 µM (inactive),38.7 µM (inactive),40.3 µM (inactive),43.2 µM (inactive),–,90.2 µM (inactive),36.8 µM (inactive),0.446 µM (active),62.8 µM (inactive),52.5 µM (inactive),28.7 µM (inactive)
